This note sets out measurements from patent US12411142B2, “Method for measuring the trimethylamine n-oxide production capacity in an individual” (NATIONAL TAIWAN UNIVERSITY, priority 2018, dated 2025).

This data set is described as follows: Pharmacokinetic study of the oral carnitine challenge test (OCCT). It counts as in vivo, human. To be noted: 13 volunteers. The protocol:
Oral carnitine challenge test (OCCT): All the participants fasted overnight (>8 hours) before the OCCT. Fasting blood and spot urine samples were collected as baseline, and three tablets of L-carnitine fumarate (GNC) were then administered orally to the participants. Subsequently, the participants underwent time-series blood drawings with concurrent spot urine collections at 24 hours and 48 hours after the oral carnitine challenge. The participants were requested to provide urine samples within 2 hours of blood sample collections. All the participants were asked to avoid red meat, seafood and any medication during the period of the carnitine challenge test. The plasma and urine samples were aliquoted after centrifugation at 3000 rpm and stored in a freezer at −20° C. Ten carnitine tablets (GNC) were examined through HPLC to verify the amount of L-carnitine used in the OCCT. The mean dose of carnitine fumarate in each tablet was 693.5 (SD±63.2) mg (≈400 mg L-carnitine/tablet).
Pharmacokinetic study of plasma TMAO by oral administration of carnitine: Thirteen independent volunteers were recruited for a pharmacokinetic study of the OCCT. After the oral carnitine challenge, blood samples were collected at 4, 8, 12, 24, 36 and 48 hours. Six of the volunteers agreed to participate in the same pharmacokinetic test again 3 months later. All the volunteers signed informed consent waivers provided by the Institutional Review Board of National Taiwan University Hospital.
Plasma TMAO peaked in the interval between 24 hours and 48 hours of the OCCT: This example assumed that TMAO formation in blood occurred at approximately 24 hours of the OCCT based on the time required for bowel transit, microbial catabolism and the enzymatic reaction of hepatic FMO3 to convert the ingested carnitine into plasma TMAO. The example performed a pharmacokinetic study of the OCCT to confirm this hypothesis (FIG. 4). In the study, 13 participants received seven blood tests at indicated time points after ingestion of three tablets of L-carnitine fumarate (General Nutrition Centers (GNC), Pennsylvania, USA). […]

The mark [1] stands for this setting: three tablets of L-carnitine fumarate orally.

Each structure is given as a SMILES string.

For `C[N+](C)(C)C[C@H](O)CC(=O)[O-].O=C(O)/C=C/C(=O)O` [L-carnitine fumarate], for the setting “three tablets of L-carnitine fumarate (GNC, approximately 1200 mg L-carnitine) orally”, the “time at which plasma carnitine level peaked after OCCT” value came to 4 h. Under setting [1], the “plasma TMA level after OCCT” value is on record as “very low concentration” and the “plasma γ-butyrobetaine level after OCCT” value is given as “very low concentration”.
